Test results reported in article PMC11989212, “Experimental Conditions to Retrieve Intrinsic Cooperativity α Directly from Single Binding Assay Data Exemplified by the Ternary Complex Formation of FKBP12, MAPRE1 and Macrocyclic Molecular Glues” (International Journal of Molecular Sciences, 2025).
Several values for one entry are separate records, joined by “and”; a condition that tells them apart may be missing. Equal entries are not always repeated.

Assays:
[1] = target: T1, MAPRE1 in the presence of FKBP12 (Homo sapiens, UniProt P62942+Q15691); assay: Spectral shift target engagement assay, binding to MAPRE1 in the presence of 10 μM FKBP12 (ternary)
T1 construct: His-tag (N)
Excerpt: Our method of choice is the spectral shift method, which monitors binding events on the target isothermally and in equilibrium via an environment-sensitive near-infrared fluorophore. In the case of target engagement, either the proximity of the ligand towards the dye or structural changes occurring in the target as a result of binding lead to a change in the chemical environment of the fluorophore. Those changes affect the physiochemical properties of the reporter fluorophore and translate into either blue or red shifts (or peak broadening) of emission peaks upon ligand binding, which can be sensitively monitored by simultaneously recording the fluorescence at two wavelengths (i.e., at 650 nm and 670 nm). Calculating the ratio between the two fluorescence channels then allows to monitor subtle emission shifts that occur as a result of target engagement. Affinity measurements can then be performed by recording the spectral shift as a function of ligand concentration.
Binding study through MAPRE1: MAPRE1 was labeled via lysines using an NHS-conjugated dye. The final concentration of MAPRE1NHS (referring to [Ttot]) was 5 nM. Compounds could be titrated up to a concentration of 200 μM (referring to [Ltot]). […] However more accuracy could only be achieved at higher ligand concentrations—ideally at full target saturation. However, this was experimentally infeasible due to assay conditions (i.e., the requirement of maintaining a certain DMSO concentration or avoiding solubility issues of the ligand). Although the determined KT,1 values of binding to MAPRE1 are only approximations, their relative ranking reflects the underlying differences in the affinity of the ligands L to MAPRE1. Performing these experiments in duplicates confirmed the high signal-to-noise ratio, i.e., there was no significant deviation between the two curves, indicating a high accuracy of the interpolated EC50 values. Due to the low [Ttot] = 5 nM, this value coincides with KT,1 (1.8 mM − 0.005 mM/2 ≈ 1.8 mM). […] Consequently, KT,2 corresponds to 173 nM and not 177.5 nM.
His-tagged FKBP12 was labeled using the His-Tag Labeling Kit RED-tris-NTA 2nd Generation (MO-L018; NanoTemper Technologies GmbH). The affinity between NTA dye and the His-tag of FKBP12 was determined as 7 nM. MAPRE1 was labeled using the Protein Labeling Kit RED-NHS 2nd Generation (MO-L011; NanoTemper Technologies GmbH). In brief, 10 µM of MAPRE1 was incubated with a 3-fold molar excess of fluorophore for 30 min. The unreacted fluorophore was removed by performing a size exclusion purification (B-column). Collecting the protein fraction yielded 1.8 µM labeled MAPRE1, with a degree of labeling of 0.8, as determined on a Nanodrop.
A 1:2 dilution series of all compounds (starting from the 10 mM stock concentration) was prepared in pure DMSO. Each concentration was diluted 25-fold with assay buffer (20 mM HEPES, pH 7.4, 150 mM NaCl, 1 mM DTT (all from Carl Roth, Karlsruhe, Germany), and 0.01% Pluronic F-127 (Sigma Aldrich, Taufkirchen, Germany)). Next, 10 µL from each of the prepared ligand dilutions was transferred into an empty well on a Dianthus Microwell Plate (DI-P001A). Another 10 µL of 2-fold concentrated labeled protein (either in the absence or the presence of 20 µM counter protein, both in assay buffer then yielded the final assay concentrations. Interaction measurements were prepared in duplicates for each condition. For binary interactions of compounds with MAPRE1, a final target concentration of 5 nM and a highest ligand concentration of 50 µM was prepared. For ternary interactions of compounds and MAPRE1 in the presence of 10 µM unlabeled FKBP12, the highest ligand concentration was increased to 200 µM, the highest concentration achievable while maintaining a constant 2% DMSO concentration. For all interactions measured via FKBP12, the target was prepared at a final concentration of 40 nM, supplemented with 5 nM NTA fluorophore. […]

[2] = Precipitation seen in the spectral shift titration; type: physicochemical; conditions: assay buffer, high concentrations
Description: Therefore, measurements from the highest concentration samples had to be removed, which impaired the determination of the interpolation curve. Moreover, the signal is much smaller compared to the other studied ligands. […] This is a deviation from the theoretically found true value of 1985 nM − 2.5 nM = 1982.5 nM. The KT,2 is 2% below the EC50 value of the %Tbound, ternary curve. The apparent cooperativity of 460,000 nM/1985 nM = 232 is still below the cooperativity α of 460,000 nM/1941 = 237 (Figure 10b).
A 1:2 dilution series of all compounds (starting from the 10 mM stock concentration) was prepared in pure DMSO. Each concentration was diluted 25-fold with assay buffer (20 mM HEPES, pH 7.4, 150 mM NaCl, 1 mM DTT (all from Carl Roth, Karlsruhe, Germany), and 0.01% Pluronic F-127 (Sigma Aldrich, Taufkirchen, Germany)). Next, 10 µL from each of the prepared ligand dilutions was transferred into an empty well on a Dianthus Microwell Plate (DI-P001A). […] For all interactions measured via FKBP12, the target was prepared at a final concentration of 40 nM, supplemented with 5 nM NTA fluorophore. […] The resulting spectral shift signal (Ratio 670 nm/650 nm) was plotted against compound concentration and analyzed in the DI.Screening Analysis software, version 2.1.1.

T1 sequence (Q15691 whole entry): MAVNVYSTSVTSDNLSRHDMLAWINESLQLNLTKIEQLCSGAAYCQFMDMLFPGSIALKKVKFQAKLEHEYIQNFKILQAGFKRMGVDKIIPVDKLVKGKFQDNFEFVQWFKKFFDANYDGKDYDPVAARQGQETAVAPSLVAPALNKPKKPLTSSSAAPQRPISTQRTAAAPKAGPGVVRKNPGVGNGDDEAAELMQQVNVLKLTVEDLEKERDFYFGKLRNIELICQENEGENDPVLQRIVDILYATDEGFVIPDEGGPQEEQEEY
T1 sequence (P62942 whole entry): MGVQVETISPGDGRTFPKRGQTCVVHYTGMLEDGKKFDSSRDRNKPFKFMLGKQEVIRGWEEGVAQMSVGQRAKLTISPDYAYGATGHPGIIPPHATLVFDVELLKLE

For C=C1CCN2C(=O)COc3cccc(c3)C(CCc3ccc(OC)c(OC)c3)OC(=O)C3CCCCN3C(=O)C(=O)C(C)(C)COC(=O)C(CN)NC(=O)C2C1 (stereo not drawn) [R,S-SLF-7], the EC50 ([1]; 5 nM MAPRE1-NHS, 10 μM FKBP12, read-out: EC50 of the %Tbound, ternary curve) was 1990 nM, the “Ratio [Ctot]/KC,1” value ([1]; [Ctot] = 10 μM FKBP12) was 60 and the “100 × (EC50 %Tbound ternary − 0.5 [Ttot] − KT,2)/KT,2” value ([1]; difference between EC50 of the %Tbound, ternary curve and KT,2, [Ttot] = 5 nM) was 2% and 2.1%. For the same molecule, the “Intrinsic cooperativity α” value ([1]; from KC,1, KT,1 and EC50 of the %Tbound, ternary curve with the mathematical model, [Ctot] = 10,000 nM, [Ttot] = 5 nM) was 237, the Kd ([1]; ternary Kd, model-based ([CL] at [Ltot] = EC50), read-out: KT,2) was 1940 nM and the precipitation [2] was “precipitation at high concentrations”.
